Laboratory results from the supplement of paper PMC10307832.

How the values were obtained:
Assay in all cases: relative viability (nuclei count vs DMSO), 5 days (fraction); higher = more cells survive
[1] = compound: CCn1c(-c2nonc2N)nc2c(C#CC(C)(C)O)ncc(OC[C@H]3CCCNC3)c21 + O=C(CCCCCCC(=O)Nc1ccccc1)NO [Vorinostat] (partner 1 µM)
How it was run: (§1)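 Lung cancer cell lines were seeded in 1536-well plates and dosed by pin tool the next day, with either a single drug or a fixed anchor-drug dose combined with five library-drug doses (not always all listed) spaced in √10 steps. Five days later, one step fixed the cells and stained their nuclei (final 0.05% Triton X-100, 1% formaldehyde, 1 ug/ml Hoechst), and nuclei were counted on 4× images. Relative viability is the nuclei count in treated wells divided by the count in vehicle wells, and each value is the median of duplicate plates.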

BAM7 + Vorinostat = compound: CCOC1=CC=CC=C1N=NC2=C(NN(C2=O)C3=NC(=CS3)C4=CC=CC=C4)C [BAM7] + O=C(CCCCCCC(=O)Nc1ccccc1)NO [Vorinostat] (partner 1 µM)
How it was run: as §1

[2] = compound: CCn1c(-c2nonc2N)nc2c(C#CC(C)(C)O)ncc(OC[C@H]3CCCNC3)c21 + Cc1nc(Nc2ncc(C(=O)Nc3c(C)cccc3Cl)s2)cc(N2CCN(CCO)CC2)n1 [Dasatinib] (partner 0.075 µM)
How it was run: as §1

[3] = compound: CCn1c(-c2nonc2N)nc2c(C#CC(C)(C)O)ncc(OC[C@H]3CCCNC3)c21 + Nc1ncn([C@H]2C[C@H](O)[C@@H](CO)O2)c(=O)n1 [Decitabine] (partner 2 µM)
How it was run: as §1

Row | Cell Line | relative viability ([1]; first compound 0.01 µM) | relative viability ([1]; first compound 0.03162 µM) | relative viability ([1]; first compound 0.1 µM) | relative viability ([1]; first compound 0.3162 µM) | relative viability ([1]; first compound 1 µM) | relative viability (BAM7 + Vorinostat; first compound 0.5 µM) | relative viability (BAM7 + Vorinostat; first compound 5 µM) | relative viability (BAM7 + Vorinostat; first compound 15.81 µM) | relative viability (BAM7 + Vorinostat; first compound 50 µM) | relative viability ([2]; first compound 0.01 µM) | relative viability ([2]; first compound 0.03162 µM) | relative viability ([2]; first compound 0.1 µM) | relative viability ([2]; first compound 0.3162 µM) | relative viability ([2]; first compound 1 µM) | relative viability ([3]; first compound 0.01 µM) | relative viability ([3]; first compound 0.03162 µM) | relative viability ([3]; first compound 0.1 µM) | relative viability ([3]; first compound 0.3162 µM) | relative viability ([3]; first compound 1 µM)
1 | NCI-H441 | 0.786 | 0.85 | 0.937 | 0.614 | 0.663 | 1.1 | 0.607 | 0.762 | 0.773 | 0.585 | 0.593 | 0.499 | 0.637 | 0.505 | 0.226 | 0.226 | 0.271 | 0.197 | 0.29
2 | SK-LU-1 | 0.767 | 0.781 | 0.78 | 0.677 | 0.767 | 0.83 | 0.901 | 0.784 | 0.847 | 0.191 | 0.161 | 0.199 | 0.188 | 0.158 | 0.669 | 0.639 | 0.75 | 0.611 | 0.574
3 | PC-3 [JPC-3] | 0.553 |  | 0.73 | 0.76 | 0.751 | 0.754 | 0.793 | 0.775 | 0.638 | 0.932 | 0.967 | 1.02 | 0.986 | 0.902 | 0.832 |  | 0.836 | 0.769 | 0.78
4 | EMC-BAC-2 | 0.203 |  | 0.448 | 0.429 | 0.448 | 0.478 | 0.485 | 0.658 | 0.483 | 0.302 | 0.29 | 0.333 | 0.297 | 0.34 | 0.966 |  | 0.996 | 0.916 | 1.04
5 | LK-2 | 0.239 | 0.291 | 0.289 | 0.316 | 0.321 | 0.341 | 0.346 | 0.343 | 0.353 | 0.252 | 0.275 |  |  | 0.406 | 0.267 | 0.302 | 0.294 | 0.312 | 0.307
6 | NCI-H2126 | 0.754 | 0.743 | 0.791 | 0.741 | 0.792 | 0.719 | 0.597 | 0.635 | 0.664 | 0.587 | 0.468 | 0.597 | 0.579 | 0.677 | 0.505 | 0.608 | 0.583 | 0.54 | 0.548
7 | NCI-H3122 | 1.07 | 1.01 | 1.05 | 1.06 | 0.994 | 0.985 | 0.887 | 1.02 | 1.14 | 0.68 | 0.859 | 0.857 | 0.852 | 0.637 | 0.499 | 0.364 | 0.427 | 0.436 | 0.414
8 | NCI-H1975 | 0.705 | 0.72 | 0.717 | 0.631 | 0.684 | 0.681 | 0.713 | 0.631 | 0.616 | 0.355 | 0.462 | 0.412 | 0.376 | 0.306 | 0.428 | 0.382 | 0.378 | 0.409 | 0.359
9 | NCI-H1944 | 0.645 | 0.477 | 0.568 | 0.514 | 0.585 | 0.521 | 0.46 | 0.396 | 0.43 | 0.215 | 0.224 | 0.213 | 0.212 | 0.212 | 0.443 | 0.415 | 0.45 | 0.446 | 0.448
10 | LU99A | 0.52 | 0.531 | 0.46 | 0.453 | 0.571 | 0.512 | 0.54 | 0.488 | 0.553 | 0.499 | 0.508 | 0.662 | 0.51 | 0.451 | 0.884 | 0.971 | 0.866 | 0.826 | 0.883
11 | SW 1573 | 0.374 | 0.82 | 0.451 | 0.367 | 0.499 | 0.715 | 0.735 | 1.06 | 0.606 | 0.377 | 0.561 | 0.431 | 0.455 | 0.354 | 0.462 | 0.388 | 0.448 | 0.42 | 0.337
12 | NCI-H2347 | 0.602 | 0.522 | 0.611 | 0.543 | 0.55 | 0.691 | 0.653 | 0.516 | 0.588 | 0.317 | 0.264 |  | 0.274 | 0.334 | 0.603 | 0.575 | 0.616 | 0.577 | 0.605
13 | NCI-H2009 | 0.726 | 0.708 | 0.788 | 0.706 | 0.821 | 0.67 | 0.755 | 0.706 | 0.693 | 0.257 | 0.33 | 0.287 | 0.254 | 0.283 | 0.35 | 0.469 | 0.354 | 0.342 | 0.39
14 | HCC-15 | 0.97 | 0.858 | 0.894 | 0.769 | 0.881 | 0.703 | 0.729 | 0.605 | 0.667 | 0.57 | 0.548 | 0.651 | 0.482 | 0.532 | 0.695 | 0.648 | 0.637 | 0.558 | 0.571
15 | COR-L23 | 0.433 | 0.558 | 0.437 | 0.368 | 0.387 | 0.434 | 0.379 | 0.433 | 0.52 | 0.521 | 0.445 | 0.505 | 0.467 | 0.534 | 0.429 | 0.353 | 0.348 | 0.352 | 0.38
16 | HCC-78 | 0.434 | 0.452 | 0.455 | 0.416 | 0.436 | 0.382 | 0.455 | 0.436 | 0.459 | 0.344 | 0.361 | 0.423 | 0.291 | 0.389 | 0.628 | 0.627 | 0.674 | 0.709 | 0.543
17 | NCI-H727 | 1.28 | 1.12 | 1.19 | 1.09 | 1.26 | 1.42 | 1.09 | 0.942 | 0.839 | 0.399 | 0.422 | 0.353 | 0.373 | 0.459 | 1.03 | 0.976 | 0.943 | 0.825 | 0.714
18 | NCI-H2087 | 0.971 |  | 0.706 | 0.517 | 0.96 | 0.852 | 0.736 | 0.489 | 0.475 | 0.738 | 0.751 | 0.936 | 0.795 | 0.913 | 0.327 |  | 0.283 | 0.208 | 0.326
19 | BEN | 0.635 | 0.617 | 0.569 | 0.56 | 0.667 | 0.573 | 0.61 | 0.523 | 0.544 | 0.308 | 0.289 | 0.304 | 0.337 | 0.398 | 0.682 | 0.693 | 0.569 | 0.67 | 0.782
20 | LCLC-103H | 0.87 | 0.752 | 0.725 | 0.757 | 0.81 | 0.781 | 0.804 | 0.764 | 0.781 | 0.381 | 0.451 | 0.445 | 0.444 | 0.433 | 0.726 | 0.797 | 0.737 | 0.716 | 0.781
21 | EKVX | 0.705 | 0.765 | 0.689 | 0.726 | 0.807 | 0.611 | 0.664 | 0.457 | 0.513 | 0.508 | 0.629 | 0.533 | 0.568 | 0.525 | 0.325 | 0.37 | 0.369 | 0.347 | 0.337
22 | LXF-289 | 0.822 | 0.791 | 0.737 | 0.737 | 0.808 | 0.82 | 0.92 | 0.84 | 0.7 | 0.249 | 0.223 | 0.205 | 0.234 | 0.187 | 0.42 | 0.369 | 0.352 | 0.35 | 0.364
23 | ABC-1 | 1.03 |  | 1.06 | 1.08 | 1.23 | 1.04 | 1.45 | 0.983 | 1.18 | 0.531 | 0.455 | 0.612 | 0.448 | 0.559 | 1.18 |  | 1.2 | 0.97 | 1.02
24 | NCI-H650 | 0.435 | 0.384 | 0.393 | 0.423 | 0.396 | 0.541 | 0.531 | 0.518 | 0.492 | 0.44 | 0.392 | 0.453 | 0.457 | 0.448 | 0.323 | 0.348 | 0.32 | 0.304 | 0.29
25 | NCI-H1650 | 0.614 | 0.628 | 0.642 | 0.377 | 0.462 | 0.605 | 0.449 | 0.428 | 0.571 | 0.338 | 0.302 | 0.297 | 0.266 | 0.25 | 0.355 | 0.455 | 0.522 | 0.208 | 0.442
26 | NCI-H2085 | 0.822 | 0.785 | 0.785 | 0.712 | 0.796 | 0.824 | 0.654 | 0.74 | 0.822 | 0.21 | 0.272 | 0.278 | 0.255 | 0.228 | 0.489 | 0.517 | 0.601 | 0.58 | 0.556
27 | NCI-H1793 | 0.652 | 0.692 |  | 0.605 | 0.704 | 0.751 | 0.715 | 0.726 | 1.08 | 0.361 | 0.406 | 0.399 | 0.359 | 0.421 | 0.478 | 0.522 |  | 0.534 | 0.503
28 | LC-2-ad | 0.736 | 0.715 | 0.712 | 0.659 | 0.69 | 0.695 | 0.737 | 0.707 | 0.656 | 0.384 | 0.487 | 0.509 | 0.414 | 0.641 | 0.776 | 0.824 | 0.875 | 0.705 | 0.7
